In ChEMBL document CHEMBL1201862, “PubChem BioAssay data set” (2004):
The source made the active and inactive calls.

How the values were obtained:
BJ [1] = assay: BJ-TERT fibroblast viability loss – cell-based, RAS-independent, luminescence, dose response (AID 1933); assay type: functional; settings: Homo sapiens
BJ [2] = assay: growth inhibition of engineered Ras-driven BJ cells – cell-based, alamar blue fluorescence, cherrypicked samples, dose response (AID 2631); assay type: functional; settings: Homo sapiens;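 further: confirmatory dose-response assay in RAS-dependent BJ fibroblasts engineered with TERT, LT and ST, with cytotoxicity read by fluorescence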
[3] = toxicity toward immortalized ovarian surface epithelium – cell-based, plate reader, dry powder samples, cytotoxicity control for PAX8 inhibitor project, dose response (AID 743045); assay type: functional
[4] = inhibitors acting on PAX2 in cells – cell-based, plate reader, dry powder samples, selectivity assay for PAX8 inhibitor project, dose response (AID 743048); assay type: functional;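 further: HEK293 cells carrying a WT1 promoter luciferase reporter driven by expressed Pax2; potency is for inhibition of Pax2 driven reporter signal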
[5] = PAX8-dependent cell viability loss – plate reader, dry powder, dose response (AID 743049); assay type: functional, cell-based
[6] = alpha-synuclein stem-loop luciferase translation blockers – H4 neuroglioma cells, luminescence, confirmation (AID 1988); assay type: functional, cell-based
Paired box protein Pax-8 = Paired box protein Pax-8 (Homo sapiens, UniProt Q06710); assay: PAX8 transcriptional activity inhibition in RMG-I – RMG-I cells, luciferase, cherry-pick, dose response (AID 687027); assay type: functional, cell-based;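 further: luciferase reporter driven by Pax8 target thyroperoxidase promoter measured by SteadyGlo luminescence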
[7] = IGROV1 cell killing – plate reader, dry powder samples, PAX8 inhibitor project, dose response (AID 743043); assay type: functional, cell-based; settings: IGROV-1
BJ [8] = assay: BJ-TERT-LT-ST fibroblast viability loss – cell-based, RAS-independent, luminescence, dose response (AID 1935); assay type: functional; settings: Homo sapiens;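 further: BJ fibroblasts immortalized with TERT plus LT and ST oncogenes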
[9] = Luminescence Cell-Based Dose Response HTS to Identify Inhibitors of 5'UTR Stem-Loop Driven Prion Protein mRNA Translation in H4 Neuroglioblastoma Cells. [Related pubchem assays: 1827 (Project Summary), 1813 (Primary HTS)]; assay type: functional
[10] = luciferase reporter signal suppression in cells – H4 neuroglioma cells, luminescence, dose response (AID 1990); assay type: functional, cell-based
[11] = OVCAR4 cell viability loss – plate reader, dry powder, SA11, cytotoxicity control for PAX8 inhibitor project, dose response (AID 743150); assay type: functional, cell-based; settings: OVCAR-4
[12] = DRD fibroblast viability loss – cell-based, non-viral oncogenic, luminescence, dose response (AID 1934); assay type: functional; settings: Homo sapiens
[13] = A2780 cell killing – plate reader, dry powder samples, cytotoxicity control, dose response (AID 743046); assay type: functional, cell-based
BJ [14] = assay: cells; assay type: functional, cell-based; settings: Homo sapiens
[15] = PAX5 cellular inhibition readout – cell-based, plate reader, dry powder samples, selectivity assay for PAX8 inhibitor project, dose response (AID 743047); assay type: functional;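 further: HEK293 cells carrying a Pax5 driven CD19 promoter luciferase reporter; potency of inhibitors that lower reporter luminescence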
[16] = COV362 cell viability loss – plate reader, dry powder, SA12, cytotoxicity control for PAX8 inhibitor project, dose response (AID 743144); assay type: functional, cell-based
[17] = COV434 cell viability loss – plate reader, dry powder, SA7, cytotoxicity control for PAX8 inhibitor project, dose response (AID 743145); assay type: functional, cell-based
[18] = OVCAR-3 cell viability loss – plate reader, dry powder samples, PAX8 inhibitor project, dose response (AID 743044); assay type: functional, cell-based
[19] = OV-90 cell viability loss – plate reader, dry powder, SA8, PAX8 inhibitor project, dose response (AID 743149); assay type: functional, cell-based
[20] = Trypanosoma cruzi growth suppression in host cells – NIH3T3 host cells, beta-gal luminescence, confirmation (AID 2044); assay type: functional, cell-based;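 further: intracellular parasites grown in NIH/3T3 mouse fibroblasts as host cells; luminescent beta-galactosidase reporter signal from transgenic T. cruzi replicating inside host cells; inhibitors lower the luminescence signal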
[21] = NIH3T3 cell viability loss – ATP luminescence, mouse fibroblasts, counter-screen, dose response (AID 2010); assay type: functional, cell-based;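 further: cells exposed to compound for about 90 hours before reading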
[22] = molecular target: COUP transcription factor 2 (Homo sapiens, UniProt P24468); assay: Luminescence-based cell-based high throughput dose response assay to identify inhibitors of COUP-TFII (NR2F2).; assay type: functional;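 further: HEK293 cells transiently cotransfected with COUP-TFII expression vector and reporter; luciferase reporter luminescence driven by COUP-TFII from the pX2-168 reporter plasmid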
[23] = molecular target: Delta-type opioid receptor (Homo sapiens, UniProt P41143); assay: Late-stage results from the probe development effort to identify antagonists of OPRK1: fluorescence-based cell-based dose response OPRD1 counterscreen.; assay type: functional
Mu-type opioid receptor = Mu-type opioid receptor (Homo sapiens, UniProt P35372); assay: Late-stage results from the probe development effort to identify antagonists of OPRK1: luminescence-based cell-based dose response OPRM1 counterscreen.; assay type: functional
[24] = viability loss in HepG2 hepatoma cells – cell-based, ATP luminescence, cherry-pick, activator set 2, cytotoxicity control, dose response (AID 1053143); assay type: functional
[25] = A Cell-Based Confirmatory Screen for Compounds that Inhibit VEEV, TC-83 (7).; assay type: functional
HEK293 = assay: viability loss in HEK293T cells – cell-based, ATP luminescence, cherry-pick samples, cytotoxicity control, dose response (AID 687005); assay type: functional; settings: Homo sapiens;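 further: cells exposed to compound for 48 hours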
[26] = HEK293 Cytotoxicity Assay Measured in Cell-Based System Using Plate Reader - 7071-01_Inhibitor_Dose_CherryPick_Activity_Set2.; assay type: functional
HeLa = assay: viability loss in HeLa cells – cell-based, ATP luminescence, cherry-pick samples, cytotoxicity control, dose response (AID 687004); assay type: functional; settings: Homo sapiens
[27] = molecular target: Metabotropic glutamate receptor 3 (Rattus norvegicus, UniProt P31422); assay: inhibitors of rat mGlu3 Galpha15 signaling – TREx293 cells, calcium flux, mGlu3 NAM project, dose response (AID 651840); assay type: functional
[28] = molecular target: T1, Trace amine-associated receptor 1 (Homo sapiens, UniProt Q96RJ0); assay: Fluorescence-based cell-based high throughput dose response assay to identify antagonists of the human trace amine associated receptor 1 (TAAR1).; assay type: functional
T1 sequence (Q96RJ0 whole entry): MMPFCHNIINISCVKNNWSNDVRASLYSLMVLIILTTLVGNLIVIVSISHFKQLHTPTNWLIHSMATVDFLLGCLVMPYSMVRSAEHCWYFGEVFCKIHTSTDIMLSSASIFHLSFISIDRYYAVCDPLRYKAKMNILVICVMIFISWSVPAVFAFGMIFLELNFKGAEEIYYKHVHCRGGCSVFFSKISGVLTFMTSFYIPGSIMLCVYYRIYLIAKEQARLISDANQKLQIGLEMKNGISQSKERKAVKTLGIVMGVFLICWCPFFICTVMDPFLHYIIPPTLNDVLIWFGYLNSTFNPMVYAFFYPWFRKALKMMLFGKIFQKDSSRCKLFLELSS

[29] = molecular target: T1, Trace amine-associated receptor 1; assay: Counterscreen for antagonists of the human trace amine associated receptor 1 (hTAAR1): Fluorescence-based cell-based high throughput dose response assay to identify TAAR1 Agonists.; assay type: functional
[30] = Counterscreen for antagonists of the human trace amine associated receptor 1 (hTAAR1): Fluorescence-based cell-based high throughput dose response assay to identify nonselective Ga16 antagonists.; assay type: functional
[31] = Counterscreen for […] of the human trace amine associated receptor 1 (TAAR1): Fluorescence-based cell-based high throughput dose response assay to identify nonselective Ga16 agonists.; assay type: functional
[32] = HIV-1 AD8 envelope cell-cell fusion blockers – cherry-pick, dose response (AID 652062); assay type: functional, cell-based;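 further: luciferase signal from cell-cell fusion driven by HIV-1 clade B AD8 Env; potency is for inhibitors of fusion seen as a drop in luminescence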
HepG2 = assay: viability loss in HepG2 hepatoma cells – cell-based, cherry-picks, set 2, cytotoxicity control, dose response (AID 687002); assay type: functional; settings: Homo sapiens
[33] = blockers of HIV-1 envelope-mediated cell-cell fusion – cherry-pick, dose response (AID 652057); assay type: functional, cell-based
[34] = molecular target: Potassium channel subfamily K member 3 (Rattus norvegicus, UniProt O54912); assay: SAR analysis for the identification of selective inhibitors of the two-pore domain potassium channel TASK1(KCNK3):Automated Electrophysiology.; assay type: functional
[35] = molecular target: Potassium channel subfamily K member 9 (Homo sapiens, UniProt Q9NPC2); assay: KCNK9 flux blockade, concentration-response – cell-based, FluxOR thallium flux, selectivity assay for TASK1 inhibitor project, SAR follow-up (AID 652211); assay type: functional;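 further: potency is for inhibitors of the channel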
[36] = molecular target: Potassium channel subfamily K member 3 (Homo sapiens, UniProt O14649); assay: inhibition of human KCNK3 channel flux – CHO cells, FluxOR thallium flux, SAR follow-up (AID 652212); assay type: functional
[37] = molecular target: T2, Disintegrin and metalloproteinase domain-containing protein 17 (Homo sapiens, UniProt P78536); assay: inhibition of ADAM17 substrate cleavage – biochemical, quenched FRET substrate, counter-screen for ADAM10 exosite inhibitor project, dose response (AID 743253)
[38] = potency of ADAM10 substrate cleavage blockers – biochemical, QFRET, dose response (AID 743254);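 further: ADAM10 enzyme with the DM2 quenched FRET peptide as substrate; EDANS fluorescence gain as the protease cuts the substrate; inhibitor potency against ADAM10 proteolytic activity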
[39] = molecular target: T2, Disintegrin and metalloproteinase domain-containing protein 17; assay: exosite inhibitors of ADAM17, dose response, biochemical (AID 743260)
[40] = molecular target: Scavenger receptor class B member 1 (Mus musculus, UniProt Q61009); assay: blockers of DiI-HDL lipid transfer via SR-BI – cell-based, ldlA[mSR-BI] CHO, DiI fluorescence, dry powder, set 10, dose response (AID 624029); assay type: functional
[41] = OVCAR8 cell viability loss – plate reader, dry powder samples, PAX8 project, dose response (AID 743197); assay type: functional, cell-based; settings: OVCAR-8
[42] = activation of miR-122 Renilla sensor silencing – cell-based, Huh7 psiCHECK-miR122, Renilla luciferase, cherry-picked, dose response (AID 651956); assay type: functional;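 further: huh7 hepatoma cells stably carrying a psiCHECK-2 miR-122 sensor plasmid; renilla luciferase signal reporting endogenous miR-122 activity after 48 h compound exposure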
[43] = general mammalian cell viability loss – activator set, cherry-pick, cytotoxicity control for miR-122 modulator project, dose response (AID 720690); assay type: functional, cell-based;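 further: HEK293T human cells scored for general mammalian cytotoxicity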
[44] = T. cruzi growth inhibition in host cells, dose response, cell-based, plate reader, dry powder, set 2 (AID 652275); assay type: functional
[45] = human cervical cancer cell viability loss – 24 h, plate reader, dry powder, cytotoxicity control, dose response (AID 686928); assay type: functional, cell-based; settings: HeLa

Paired box protein Pax-8, sequence (Q06710 whole entry): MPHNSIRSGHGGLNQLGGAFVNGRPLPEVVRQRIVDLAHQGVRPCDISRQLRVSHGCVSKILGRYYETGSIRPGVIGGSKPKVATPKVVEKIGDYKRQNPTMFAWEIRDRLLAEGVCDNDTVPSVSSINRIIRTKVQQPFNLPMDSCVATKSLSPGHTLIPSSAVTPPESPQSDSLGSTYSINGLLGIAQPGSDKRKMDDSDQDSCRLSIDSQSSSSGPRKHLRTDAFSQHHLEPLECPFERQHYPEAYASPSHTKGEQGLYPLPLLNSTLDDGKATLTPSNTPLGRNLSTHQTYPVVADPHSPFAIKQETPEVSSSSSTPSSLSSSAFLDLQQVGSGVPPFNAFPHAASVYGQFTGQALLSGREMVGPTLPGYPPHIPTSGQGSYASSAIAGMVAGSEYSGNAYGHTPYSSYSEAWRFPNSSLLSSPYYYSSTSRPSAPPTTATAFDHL
T2 sequence (P78536 whole entry, the tested form may be a part): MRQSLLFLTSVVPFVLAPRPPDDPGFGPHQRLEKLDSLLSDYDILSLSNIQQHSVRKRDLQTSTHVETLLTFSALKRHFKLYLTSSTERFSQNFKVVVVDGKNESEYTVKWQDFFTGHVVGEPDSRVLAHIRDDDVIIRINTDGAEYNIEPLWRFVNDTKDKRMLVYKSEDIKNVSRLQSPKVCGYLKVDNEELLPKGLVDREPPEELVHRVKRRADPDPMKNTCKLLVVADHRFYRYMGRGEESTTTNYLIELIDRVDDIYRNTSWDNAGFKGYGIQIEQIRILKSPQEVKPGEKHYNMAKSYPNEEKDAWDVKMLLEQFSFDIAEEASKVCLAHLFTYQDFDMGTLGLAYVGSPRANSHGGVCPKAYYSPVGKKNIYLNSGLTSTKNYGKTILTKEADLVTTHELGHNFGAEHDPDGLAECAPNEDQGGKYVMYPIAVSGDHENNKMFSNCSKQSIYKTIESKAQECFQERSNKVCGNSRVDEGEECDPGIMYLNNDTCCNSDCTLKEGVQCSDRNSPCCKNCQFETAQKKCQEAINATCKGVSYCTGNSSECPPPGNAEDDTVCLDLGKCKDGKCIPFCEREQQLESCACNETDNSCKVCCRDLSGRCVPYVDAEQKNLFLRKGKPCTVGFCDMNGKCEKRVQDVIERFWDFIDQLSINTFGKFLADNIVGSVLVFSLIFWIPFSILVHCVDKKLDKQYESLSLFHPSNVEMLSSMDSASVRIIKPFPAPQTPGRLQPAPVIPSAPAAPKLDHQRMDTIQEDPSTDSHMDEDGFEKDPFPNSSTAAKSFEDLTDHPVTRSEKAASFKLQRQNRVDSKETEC
Scavenger receptor class B member 1, sequence (Q61009 whole entry): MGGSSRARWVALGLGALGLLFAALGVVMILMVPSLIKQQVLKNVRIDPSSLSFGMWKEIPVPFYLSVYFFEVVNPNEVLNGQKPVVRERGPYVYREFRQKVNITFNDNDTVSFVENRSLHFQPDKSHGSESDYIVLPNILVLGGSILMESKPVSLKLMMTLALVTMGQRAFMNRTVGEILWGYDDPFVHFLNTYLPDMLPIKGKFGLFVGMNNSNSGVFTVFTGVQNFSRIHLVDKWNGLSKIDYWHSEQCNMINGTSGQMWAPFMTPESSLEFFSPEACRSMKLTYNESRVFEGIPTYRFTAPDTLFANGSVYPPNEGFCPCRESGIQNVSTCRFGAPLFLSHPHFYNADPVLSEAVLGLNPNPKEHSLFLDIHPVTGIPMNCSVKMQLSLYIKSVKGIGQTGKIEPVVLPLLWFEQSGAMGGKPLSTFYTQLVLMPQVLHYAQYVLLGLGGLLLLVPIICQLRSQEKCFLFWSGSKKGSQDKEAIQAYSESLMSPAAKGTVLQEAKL
Potassium channel subfamily K member 9, sequence (Q9NPC2 whole entry): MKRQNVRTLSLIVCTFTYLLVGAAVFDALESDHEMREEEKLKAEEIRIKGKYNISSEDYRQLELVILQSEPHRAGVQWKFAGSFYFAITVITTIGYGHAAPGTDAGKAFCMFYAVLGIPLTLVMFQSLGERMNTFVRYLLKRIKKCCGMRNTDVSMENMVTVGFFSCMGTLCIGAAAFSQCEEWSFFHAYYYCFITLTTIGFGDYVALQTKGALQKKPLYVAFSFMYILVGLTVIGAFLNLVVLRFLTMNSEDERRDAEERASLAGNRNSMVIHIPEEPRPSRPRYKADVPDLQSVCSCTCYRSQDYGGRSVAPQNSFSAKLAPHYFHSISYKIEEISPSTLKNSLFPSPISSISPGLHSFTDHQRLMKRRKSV
Metabotropic glutamate receptor 3, sequence (P31422 whole entry): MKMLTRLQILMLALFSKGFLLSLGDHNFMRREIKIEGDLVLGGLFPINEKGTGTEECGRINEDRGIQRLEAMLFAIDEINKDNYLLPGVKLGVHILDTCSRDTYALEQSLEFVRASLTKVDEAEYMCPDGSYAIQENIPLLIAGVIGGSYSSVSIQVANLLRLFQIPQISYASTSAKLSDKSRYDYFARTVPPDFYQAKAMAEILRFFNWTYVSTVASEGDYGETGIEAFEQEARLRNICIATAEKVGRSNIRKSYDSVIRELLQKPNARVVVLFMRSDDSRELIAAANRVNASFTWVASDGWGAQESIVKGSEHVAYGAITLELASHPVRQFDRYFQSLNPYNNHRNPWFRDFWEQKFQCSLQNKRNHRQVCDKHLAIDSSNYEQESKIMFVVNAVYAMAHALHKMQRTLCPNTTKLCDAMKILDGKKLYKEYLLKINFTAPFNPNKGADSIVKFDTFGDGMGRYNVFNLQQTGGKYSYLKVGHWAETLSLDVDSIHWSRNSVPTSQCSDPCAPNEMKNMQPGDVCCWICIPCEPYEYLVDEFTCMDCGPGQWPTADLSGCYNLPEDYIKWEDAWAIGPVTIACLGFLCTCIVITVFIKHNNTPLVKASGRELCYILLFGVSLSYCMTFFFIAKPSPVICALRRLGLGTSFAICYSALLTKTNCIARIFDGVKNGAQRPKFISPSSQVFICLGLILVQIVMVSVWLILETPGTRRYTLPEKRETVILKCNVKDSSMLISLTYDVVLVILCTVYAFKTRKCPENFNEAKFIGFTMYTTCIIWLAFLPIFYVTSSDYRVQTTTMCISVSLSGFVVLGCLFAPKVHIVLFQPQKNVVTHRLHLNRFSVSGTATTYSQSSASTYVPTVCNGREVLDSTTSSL
Potassium channel subfamily K member 3 (Rattus norvegicus, UniProt O54912), sequence (O54912 whole entry, the tested form may be a part): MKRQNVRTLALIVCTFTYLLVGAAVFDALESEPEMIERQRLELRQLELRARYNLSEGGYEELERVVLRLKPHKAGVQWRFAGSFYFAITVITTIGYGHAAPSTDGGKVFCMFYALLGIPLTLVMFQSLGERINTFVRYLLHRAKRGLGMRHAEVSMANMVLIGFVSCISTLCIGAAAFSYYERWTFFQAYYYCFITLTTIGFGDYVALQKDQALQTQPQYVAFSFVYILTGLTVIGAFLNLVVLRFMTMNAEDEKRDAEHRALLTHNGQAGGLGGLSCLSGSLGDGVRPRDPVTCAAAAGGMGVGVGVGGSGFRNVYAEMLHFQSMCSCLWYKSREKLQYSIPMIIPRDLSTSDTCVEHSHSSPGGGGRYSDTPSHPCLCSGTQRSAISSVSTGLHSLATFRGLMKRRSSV
Potassium channel subfamily K member 3 (Homo sapiens, UniProt O14649), sequence (O14649 whole entry, the tested form may be a part): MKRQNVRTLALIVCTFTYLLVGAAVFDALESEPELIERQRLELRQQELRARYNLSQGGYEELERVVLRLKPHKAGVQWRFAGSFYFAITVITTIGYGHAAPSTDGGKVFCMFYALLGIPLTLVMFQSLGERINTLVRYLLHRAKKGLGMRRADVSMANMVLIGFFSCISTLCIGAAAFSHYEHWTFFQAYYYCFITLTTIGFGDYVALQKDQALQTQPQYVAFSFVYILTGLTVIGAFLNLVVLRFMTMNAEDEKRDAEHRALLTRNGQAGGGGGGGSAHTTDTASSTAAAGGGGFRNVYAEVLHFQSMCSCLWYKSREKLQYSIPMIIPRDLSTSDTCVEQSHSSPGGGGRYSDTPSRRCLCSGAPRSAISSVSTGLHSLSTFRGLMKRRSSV
COUP transcription factor 2, sequence (P24468 whole entry): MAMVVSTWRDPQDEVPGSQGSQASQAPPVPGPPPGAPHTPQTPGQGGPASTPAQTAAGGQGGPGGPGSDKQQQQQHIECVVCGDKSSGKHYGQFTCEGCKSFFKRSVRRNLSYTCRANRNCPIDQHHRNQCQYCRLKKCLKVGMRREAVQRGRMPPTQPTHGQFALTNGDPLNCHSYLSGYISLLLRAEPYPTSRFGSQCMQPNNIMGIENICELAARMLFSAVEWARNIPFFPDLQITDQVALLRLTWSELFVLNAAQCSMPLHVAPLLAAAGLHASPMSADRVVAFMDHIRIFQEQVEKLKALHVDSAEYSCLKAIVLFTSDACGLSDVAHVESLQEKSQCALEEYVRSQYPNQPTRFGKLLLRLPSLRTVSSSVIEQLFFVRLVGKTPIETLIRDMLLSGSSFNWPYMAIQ
Mu-type opioid receptor, sequence (P35372 whole entry): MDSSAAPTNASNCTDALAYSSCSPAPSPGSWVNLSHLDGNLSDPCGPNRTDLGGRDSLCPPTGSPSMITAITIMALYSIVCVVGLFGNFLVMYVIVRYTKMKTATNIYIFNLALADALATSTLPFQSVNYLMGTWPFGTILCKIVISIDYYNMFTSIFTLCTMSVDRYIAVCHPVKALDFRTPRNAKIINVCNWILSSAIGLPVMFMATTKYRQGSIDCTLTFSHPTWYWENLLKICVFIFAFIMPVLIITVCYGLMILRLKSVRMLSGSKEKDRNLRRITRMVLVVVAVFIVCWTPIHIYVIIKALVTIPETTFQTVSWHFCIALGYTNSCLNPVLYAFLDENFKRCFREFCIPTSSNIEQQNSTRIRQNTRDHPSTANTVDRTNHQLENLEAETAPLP

SMILES: CCOc1ccc2c(c1)C(C)=CC(C)(C)N2S(=O)(=O)c1ccc(NC(C)=O)cc1
- EC50 (BJ [1]): 0.642 µM (active)
- EC50 (BJ [2]): < 0.104 µM (active)
- AC50 [3]: 2.54 µM (active)
- AC50 [4]: 31.8 µM (active)
- AC50 [5]: 12.1 µM (active)
- EC50 [6]: 0.129 µM (active)
- AC50 (Paired box protein Pax-8): 1.61 µM (active)
- AC50 [7]: 15.9 µM (active)
- EC50 (BJ [8]): 0.428 µM (inconclusive)
- EC50 [9]: 0.162 µM (active)
- EC50 [10]: 0.199 µM (active)
- AC50 [11]: 1.83 µM (active)
- EC50 [12]: 0.722 µM (active)
- AC50 [13]: 4.06 µM (active)
- EC50 (BJ [14]): 1.54 µM (active)
- AC50 [15]: 89.2 µM (active)
- AC50 [16]: 4.1 µM (active)
- AC50 [17]: 1.53 µM (active)
- AC50 [18]: 41.1 µM (active)
- AC50 [19]: 2.6 µM (active)

SMILES: Cc1c(C(=O)N2CCN(Cc3ccc4c(c3)OCO4)CC2)sc2ncnc(N3CCN(c4ccccc4F)CC3)c12
- EC50 [20]: 0.487 µM (active)
- EC50 [21]: > 60 µM (not active)
- IC50 [22]: 6.85 µM (active)

SMILES: COC(=O)c1cc(Br)cnc1N1CCC(NC2CCCCC2)C1 (stereo not drawn)
- IC50 [23]: > 50 µM (inactive)
- IC50 (Mu-type opioid receptor): 20 µM (inactive)

SMILES: Cc1cc2nn(-c3ccc(Cl)cc3)nc2cc1N
- AC50 [24]: 21.4 µM (active)

SMILES: CN1CCN(C)/C(=N/c2ccc(C#N)cc2C(=O)Nc2ccccc2)C1
- IC50 [25]: 0.38 µM (active)

SMILES: Cc1noc(C)c1NC(=O)Nc1ccc2c(c1)C(=O)N(C)[C@@H]1CC[C@H](CC(=O)N[C@H]3CCN(Cc4ccccc4)C3)O[C@@H]1CO2
- AC50 (HEK293): 29.7 µM (active)
- AC50 [26]: 29.7 µM (active)
- AC50 (HeLa): > 47 µM (inactive)

SMILES: COc1ccc(C#Cc2ccc(C(=O)N3CCCC(O)(Cc4ccccc4)C3)cc2)cc1 (stereo not drawn)
- IC50 [27]: 8.87 µM (active)

SMILES: Cc1ccc(/C=N/NC(=O)c2ccccc2OCc2cccc(Br)c2)o1
- IC50 [28]: 3.69 µM (active)
- EC50 [29]: > 29.9 µM (inactive)
- IC50 [30]: > 29.9 µM (inactive)
- EC50 [31]: > 29.9 µM (inactive)

SMILES: C[C@H](CO)N1C[C@H](C)[C@H](CN(C)Cc2ccccc2F)Oc2cc(C3=CCCC3)ccc2S1(=O)=O
- AC50 [32]: 24.4 µM (active)
- AC50 (HEK293): 18.8 µM (active)
- AC50 (HepG2): 19.4 µM (active)
- AC50 [26]: 18.8 µM (active)
- AC50 [33]: 22.8 µM (active)

SMILES: CCOc1ccccc1NC(=O)c1cccc(NC(=O)c2cccc(Cl)c2)c1
- IC50 [34]: 2.86 µM (active)
- IC50 [35]: 1.84 µM (active)
- IC50 [36]: 0.039 µM (active)

SMILES: O=C(NCC1CCCO1)C(c1cccs1)N(Cc1ccccc1)C(=O)c1ccc(-c2ccccc2)[nH]1 (stereo not drawn)
- IC50 [37]: > 69.5 µM (inactive)
- IC50 [38]: > 69.5 µM (inactive)
- IC50 [39]: > 69.5 µM (inactive)

SMILES: CC(C)NC(=O)Nc1ccc2c(c1)C(=O)N([C@@H](C)CO)C[C@@H](C)[C@H](CN(C)S(=O)(=O)c1ccc(Cl)cc1)O2
- AC50 [40]: 0.154 µM (active)

SMILES: C[C@@H]1CN([C@@H](C)CO)C(=O)Cc2cc(NC(=O)Nc3ccc(C(F)(F)F)cc3)ccc2O[C@H]1CN(C)Cc1ccc(Oc2ccccc2)cc1
- AC50 [41]: 39.9 µM (active)
- AC50 [42]: 19.9 µM (active)
- AC50 [43]: 19.9 µM (active)
- AC50 (Paired box protein Pax-8): 10.3 µM (active)

SMILES: O=C(CN1CCOCC1)N1CCCCN2[C@@H](CO)[C@H](c3ccc(Br)cc3)[C@@H]2C1
- AC50 [44]: 7.96 µM (active)

SMILES: O=C(Nc1nnc(-c2ccc3c(c2)OCCO3)o1)C(F)(F)c1ccccc1
- AC50 [45]: > 200 µM (inactive)
